Blank lines part the entries; values can stand above or below the compound they belong to. Calls of active or inactive are those of the source.
Legend:
[1] = molecular target: Dual specificity protein kinase CLK2 (Homo sapiens, UniProt P49760); assay type: functional
[2] = molecular target: Protein kinase C zeta type (Homo sapiens, UniProt Q05513); assay type: functional;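 note: measured as one member of a broad kinase profiling panel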
[3] = molecular target: Ribosomal protein S6 kinase beta-1 (Homo sapiens, UniProt P23443); assay type: functional;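 note: measured as one member of a kinome-wide profiling panel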
[4] = molecular target: Tyrosine-protein kinase SYK (Homo sapiens, UniProt P43405); assay type: functional
Aurora kinase A = Aurora kinase A (Homo sapiens, UniProt O14965); assay type: functional;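 note: value from the Navigating the Kinome kinase panel profiling, panel entry STK6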
Chain of Aurora kinase A (O14965 whole entry): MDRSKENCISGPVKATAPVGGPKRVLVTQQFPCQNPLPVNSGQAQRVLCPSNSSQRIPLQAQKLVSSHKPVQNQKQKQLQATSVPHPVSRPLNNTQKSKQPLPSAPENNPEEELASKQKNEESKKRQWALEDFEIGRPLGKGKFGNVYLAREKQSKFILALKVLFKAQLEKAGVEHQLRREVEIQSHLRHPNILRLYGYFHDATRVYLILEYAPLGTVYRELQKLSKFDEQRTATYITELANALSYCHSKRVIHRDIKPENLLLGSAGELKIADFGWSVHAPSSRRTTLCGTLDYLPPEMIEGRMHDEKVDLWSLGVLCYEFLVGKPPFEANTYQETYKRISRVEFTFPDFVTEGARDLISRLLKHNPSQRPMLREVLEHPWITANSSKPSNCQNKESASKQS

[5] = molecular target: T1, Tyrosine-protein kinase JAK3 (Homo sapiens, UniProt P52333); assay type: functional
T1 sequence (P52333 whole entry): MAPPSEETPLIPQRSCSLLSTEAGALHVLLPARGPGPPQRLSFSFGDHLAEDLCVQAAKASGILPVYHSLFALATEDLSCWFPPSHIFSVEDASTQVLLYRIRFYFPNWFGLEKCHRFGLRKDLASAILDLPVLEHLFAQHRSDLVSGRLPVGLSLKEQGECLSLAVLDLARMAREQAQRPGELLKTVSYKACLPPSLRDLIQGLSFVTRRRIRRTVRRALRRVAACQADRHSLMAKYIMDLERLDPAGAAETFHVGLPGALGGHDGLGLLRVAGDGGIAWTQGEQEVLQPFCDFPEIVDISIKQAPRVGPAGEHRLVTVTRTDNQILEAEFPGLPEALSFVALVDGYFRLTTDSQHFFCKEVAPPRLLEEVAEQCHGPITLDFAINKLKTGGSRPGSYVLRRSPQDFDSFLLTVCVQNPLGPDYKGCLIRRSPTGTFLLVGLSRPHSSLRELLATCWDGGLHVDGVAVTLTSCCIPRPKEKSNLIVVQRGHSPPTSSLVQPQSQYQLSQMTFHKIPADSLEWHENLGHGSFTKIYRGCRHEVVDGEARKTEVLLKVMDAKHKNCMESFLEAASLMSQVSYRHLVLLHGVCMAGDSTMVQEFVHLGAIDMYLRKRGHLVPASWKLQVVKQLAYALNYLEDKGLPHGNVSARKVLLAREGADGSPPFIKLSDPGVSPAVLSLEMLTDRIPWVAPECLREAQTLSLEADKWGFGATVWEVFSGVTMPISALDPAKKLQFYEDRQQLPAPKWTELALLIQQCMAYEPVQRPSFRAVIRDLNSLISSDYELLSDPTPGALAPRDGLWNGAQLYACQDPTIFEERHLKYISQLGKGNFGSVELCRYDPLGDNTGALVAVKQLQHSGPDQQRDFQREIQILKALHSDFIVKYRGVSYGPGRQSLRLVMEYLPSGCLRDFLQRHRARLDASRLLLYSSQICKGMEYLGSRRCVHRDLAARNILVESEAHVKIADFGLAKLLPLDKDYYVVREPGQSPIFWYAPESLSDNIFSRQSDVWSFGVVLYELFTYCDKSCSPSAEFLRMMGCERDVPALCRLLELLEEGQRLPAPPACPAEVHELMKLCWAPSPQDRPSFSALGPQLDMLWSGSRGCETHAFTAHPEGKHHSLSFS

Activated CDC42 kinase 1 = Activated CDC42 kinase 1 (Homo sapiens, UniProt Q07912); assay: Navigating the Kinome. Panel member name: ACK1; assay type: functional
Chain of Activated CDC42 kinase 1 (Q07912 whole entry): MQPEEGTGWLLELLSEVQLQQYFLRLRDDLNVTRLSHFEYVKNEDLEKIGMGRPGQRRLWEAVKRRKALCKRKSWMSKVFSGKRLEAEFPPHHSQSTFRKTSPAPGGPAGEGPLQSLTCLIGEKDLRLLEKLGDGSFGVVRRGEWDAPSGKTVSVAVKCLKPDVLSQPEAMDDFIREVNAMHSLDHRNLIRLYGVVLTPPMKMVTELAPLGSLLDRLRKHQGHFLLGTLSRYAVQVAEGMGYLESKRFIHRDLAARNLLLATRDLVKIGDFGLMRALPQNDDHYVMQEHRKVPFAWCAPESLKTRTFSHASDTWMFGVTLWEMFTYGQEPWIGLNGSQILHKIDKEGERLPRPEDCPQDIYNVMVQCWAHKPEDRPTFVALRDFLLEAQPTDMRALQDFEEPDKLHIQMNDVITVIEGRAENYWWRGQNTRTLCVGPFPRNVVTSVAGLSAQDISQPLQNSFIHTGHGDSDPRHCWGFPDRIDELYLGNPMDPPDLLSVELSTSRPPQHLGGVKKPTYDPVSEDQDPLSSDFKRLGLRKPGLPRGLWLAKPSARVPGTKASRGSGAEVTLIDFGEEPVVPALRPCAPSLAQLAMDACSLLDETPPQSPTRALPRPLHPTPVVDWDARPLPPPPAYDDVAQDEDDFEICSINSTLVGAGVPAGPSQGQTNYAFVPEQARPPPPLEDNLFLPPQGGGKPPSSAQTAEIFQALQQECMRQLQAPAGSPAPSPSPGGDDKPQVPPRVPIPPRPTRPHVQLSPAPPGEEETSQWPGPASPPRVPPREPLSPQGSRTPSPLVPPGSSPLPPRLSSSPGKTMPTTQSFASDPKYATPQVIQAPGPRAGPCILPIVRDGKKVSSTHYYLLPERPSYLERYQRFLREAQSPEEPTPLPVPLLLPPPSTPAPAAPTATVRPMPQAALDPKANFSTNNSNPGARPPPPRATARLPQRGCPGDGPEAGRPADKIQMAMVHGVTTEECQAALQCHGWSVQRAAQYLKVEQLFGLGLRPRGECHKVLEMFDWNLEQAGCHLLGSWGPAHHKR

[6] = molecular target: Vascular endothelial growth factor receptor 2 (Homo sapiens, UniProt P35968); assay type: functional
Chain of Vascular endothelial growth factor receptor 2 (P35968 whole entry): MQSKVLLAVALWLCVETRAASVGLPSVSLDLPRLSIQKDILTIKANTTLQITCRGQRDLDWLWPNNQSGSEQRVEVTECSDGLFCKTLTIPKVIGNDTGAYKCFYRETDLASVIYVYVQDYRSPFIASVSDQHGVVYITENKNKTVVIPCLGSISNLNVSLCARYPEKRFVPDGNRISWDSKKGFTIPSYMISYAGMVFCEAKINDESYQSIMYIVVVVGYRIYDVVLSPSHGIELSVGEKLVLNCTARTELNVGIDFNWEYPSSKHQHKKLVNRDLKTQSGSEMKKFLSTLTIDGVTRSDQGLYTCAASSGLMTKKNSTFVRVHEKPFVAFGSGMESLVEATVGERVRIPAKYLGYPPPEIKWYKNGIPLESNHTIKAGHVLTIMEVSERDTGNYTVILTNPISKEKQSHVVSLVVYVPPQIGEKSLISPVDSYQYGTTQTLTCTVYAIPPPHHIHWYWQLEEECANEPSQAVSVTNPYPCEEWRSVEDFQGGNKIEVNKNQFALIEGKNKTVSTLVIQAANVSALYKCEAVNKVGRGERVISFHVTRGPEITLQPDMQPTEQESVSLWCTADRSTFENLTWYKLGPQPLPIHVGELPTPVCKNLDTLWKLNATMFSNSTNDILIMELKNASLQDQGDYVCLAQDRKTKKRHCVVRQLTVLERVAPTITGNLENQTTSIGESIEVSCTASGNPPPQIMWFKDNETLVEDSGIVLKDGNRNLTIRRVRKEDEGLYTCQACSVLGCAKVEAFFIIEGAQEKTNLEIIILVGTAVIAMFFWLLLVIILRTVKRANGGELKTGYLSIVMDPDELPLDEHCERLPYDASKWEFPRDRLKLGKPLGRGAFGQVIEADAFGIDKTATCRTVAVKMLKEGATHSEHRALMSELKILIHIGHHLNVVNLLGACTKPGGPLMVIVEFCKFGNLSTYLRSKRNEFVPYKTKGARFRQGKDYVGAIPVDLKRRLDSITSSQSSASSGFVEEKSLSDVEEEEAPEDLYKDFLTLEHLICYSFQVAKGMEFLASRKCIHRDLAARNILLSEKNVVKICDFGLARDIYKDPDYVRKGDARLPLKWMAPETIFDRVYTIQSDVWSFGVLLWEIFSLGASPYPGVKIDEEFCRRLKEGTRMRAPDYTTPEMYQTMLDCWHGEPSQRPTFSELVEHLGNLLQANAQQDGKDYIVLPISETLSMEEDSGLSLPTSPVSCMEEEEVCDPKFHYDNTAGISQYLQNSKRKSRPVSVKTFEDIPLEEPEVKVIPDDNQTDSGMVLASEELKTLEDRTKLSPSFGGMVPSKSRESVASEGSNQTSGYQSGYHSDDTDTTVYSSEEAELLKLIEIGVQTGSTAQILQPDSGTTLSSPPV

[7] = molecular target: G protein-coupled receptor kinase 5 (Homo sapiens, UniProt P34947); assay: Navigating the Kinome. Panel member name: GPRK5; assay type: functional
[8] = molecular target: Cyclin-dependent kinase 5 (Homo sapiens, UniProt Q00535); assay type: functional;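 note: CDK5 measured as one member of a kinase profiling panel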
Chain of Cyclin-dependent kinase 5 (Q00535 whole entry): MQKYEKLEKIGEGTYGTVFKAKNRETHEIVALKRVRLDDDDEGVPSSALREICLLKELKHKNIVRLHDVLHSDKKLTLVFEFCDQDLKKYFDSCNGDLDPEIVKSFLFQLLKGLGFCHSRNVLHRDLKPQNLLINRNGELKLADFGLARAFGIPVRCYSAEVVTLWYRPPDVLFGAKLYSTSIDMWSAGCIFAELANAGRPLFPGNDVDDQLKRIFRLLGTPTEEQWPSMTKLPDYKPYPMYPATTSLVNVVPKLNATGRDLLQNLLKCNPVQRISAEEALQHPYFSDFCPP

Ephrin type-A receptor 2 = Ephrin type-A receptor 2 (Homo sapiens, UniProt P29317); assay type: functional;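 note: EPHA2 tested as one member of a kinome-wide kinase panel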
Chain of Ephrin type-A receptor 2 (P29317 whole entry): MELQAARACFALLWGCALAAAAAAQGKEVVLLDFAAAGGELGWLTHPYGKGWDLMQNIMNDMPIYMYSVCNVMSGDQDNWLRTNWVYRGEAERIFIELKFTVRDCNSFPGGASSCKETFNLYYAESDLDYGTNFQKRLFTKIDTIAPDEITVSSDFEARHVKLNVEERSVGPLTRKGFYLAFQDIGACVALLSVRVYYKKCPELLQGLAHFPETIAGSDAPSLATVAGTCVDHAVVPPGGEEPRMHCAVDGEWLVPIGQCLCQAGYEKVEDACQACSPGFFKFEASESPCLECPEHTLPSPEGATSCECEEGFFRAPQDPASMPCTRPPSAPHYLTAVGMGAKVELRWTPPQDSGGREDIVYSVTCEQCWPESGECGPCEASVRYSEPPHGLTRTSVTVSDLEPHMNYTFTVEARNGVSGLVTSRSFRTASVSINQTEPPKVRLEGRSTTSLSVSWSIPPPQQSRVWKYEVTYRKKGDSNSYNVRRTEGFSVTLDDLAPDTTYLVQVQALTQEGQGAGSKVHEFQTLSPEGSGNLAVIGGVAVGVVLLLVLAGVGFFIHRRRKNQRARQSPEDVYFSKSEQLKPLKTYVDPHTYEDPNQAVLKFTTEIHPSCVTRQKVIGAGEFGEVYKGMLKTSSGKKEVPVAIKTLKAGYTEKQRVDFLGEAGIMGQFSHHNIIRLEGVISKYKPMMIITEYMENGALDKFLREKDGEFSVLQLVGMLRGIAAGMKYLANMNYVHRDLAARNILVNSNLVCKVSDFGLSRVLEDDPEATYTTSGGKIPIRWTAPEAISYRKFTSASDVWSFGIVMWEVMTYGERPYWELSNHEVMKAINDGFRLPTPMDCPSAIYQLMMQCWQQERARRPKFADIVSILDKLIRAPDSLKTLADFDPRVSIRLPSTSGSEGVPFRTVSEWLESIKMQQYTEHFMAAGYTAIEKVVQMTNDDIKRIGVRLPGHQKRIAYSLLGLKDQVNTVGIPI

[9] = molecular target: Protein kinase C iota type (Homo sapiens, UniProt P41743); assay type: functional;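 note: measured within a kinome-wide kinase panel, PRKCI as panel member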
[10] = molecular target: Dual specificity tyrosine-phosphorylation-regulated kinase 1B (Homo sapiens, UniProt Q9Y463); assay: Navigating the Kinome. Panel member name: DYRK1B; assay type: functional
Chain of Dual specificity tyrosine-phosphorylation-regulated kinase 1B (Q9Y463 whole entry): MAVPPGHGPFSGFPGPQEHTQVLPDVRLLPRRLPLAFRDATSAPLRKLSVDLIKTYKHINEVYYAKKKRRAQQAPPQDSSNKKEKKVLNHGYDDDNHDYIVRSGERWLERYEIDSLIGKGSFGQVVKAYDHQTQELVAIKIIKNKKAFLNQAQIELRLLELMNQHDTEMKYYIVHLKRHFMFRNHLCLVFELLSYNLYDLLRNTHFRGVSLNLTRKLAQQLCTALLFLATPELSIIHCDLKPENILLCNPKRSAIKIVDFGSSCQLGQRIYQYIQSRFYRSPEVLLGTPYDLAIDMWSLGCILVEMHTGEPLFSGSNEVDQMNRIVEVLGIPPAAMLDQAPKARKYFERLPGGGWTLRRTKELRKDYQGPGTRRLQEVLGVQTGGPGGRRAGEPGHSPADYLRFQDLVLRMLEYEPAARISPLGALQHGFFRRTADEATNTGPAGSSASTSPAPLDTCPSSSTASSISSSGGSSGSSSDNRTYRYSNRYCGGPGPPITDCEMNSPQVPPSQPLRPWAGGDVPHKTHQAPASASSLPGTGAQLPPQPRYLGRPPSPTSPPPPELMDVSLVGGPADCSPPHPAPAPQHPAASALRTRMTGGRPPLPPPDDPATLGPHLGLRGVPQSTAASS

[11] = molecular target: RAC-alpha serine/threonine-protein kinase (Homo sapiens, UniProt P31749); assay type: functional;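 note: AKT1 affinity measured as one member of a kinome-wide kinase profiling panel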
[12] = molecular target: Serine/threonine-protein kinase pim-2 (Homo sapiens, UniProt Q9P1W9); assay type: functional;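 note: value comes from a broad kinase panel profiling study in which PIM2 was one of the panel members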
Chain of Serine/threonine-protein kinase pim-2 (Q9P1W9 whole entry): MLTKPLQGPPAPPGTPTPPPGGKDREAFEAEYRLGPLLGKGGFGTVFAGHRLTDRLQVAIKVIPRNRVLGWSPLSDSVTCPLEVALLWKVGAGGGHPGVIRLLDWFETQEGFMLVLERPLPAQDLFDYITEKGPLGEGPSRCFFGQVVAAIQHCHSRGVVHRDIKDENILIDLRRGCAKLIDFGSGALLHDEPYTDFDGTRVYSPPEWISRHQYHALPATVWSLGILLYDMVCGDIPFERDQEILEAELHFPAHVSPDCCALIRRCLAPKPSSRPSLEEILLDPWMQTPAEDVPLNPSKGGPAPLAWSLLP

[13] = molecular target: Cyclin-dependent kinase 9 (Homo sapiens, UniProt P50750); assay type: functional;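 note: value from the CDK9 entry of a kinome-spanning kinase panel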
[14] = molecular target: Mitogen-activated protein kinase kinase kinase kinase 4 (Homo sapiens, UniProt O95819); assay type: functional
[15] = molecular target: Macrophage-stimulating protein receptor (Homo sapiens, UniProt Q04912); assay: Navigating the Kinome. Panel member name: MST1R; assay type: functional
[16] = molecular target: Inhibitor of nuclear factor kappa-B kinase subunit epsilon (Homo sapiens, UniProt Q14164); assay: Navigating the Kinome. Panel member name: IKBKE; assay type: functional
[17] = molecular target: Mitogen-activated protein kinase 14 (Homo sapiens, UniProt Q16539); assay type: functional;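 note: part of a kinome-wide panel, MAPK14 entry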
[18] = molecular target: Eukaryotic elongation factor 2 kinase (Homo sapiens, UniProt O00418); assay type: functional
[19] = molecular target: Cyclin-dependent kinase 2 (Homo sapiens, UniProt P24941); assay type: functional;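 note: CDK2 measured as one member of a broad kinome profiling panel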
[20] = molecular target: Tyrosine-protein kinase Lyn (Homo sapiens, UniProt P07948); assay type: functional;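 note: lyn as one member of a kinase panel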
LIM domain kinase 1 = LIM domain kinase 1 (Homo sapiens, UniProt P53667); assay: Navigating the Kinome. Panel member name: LIMK1; assay type: functional
Insulin receptor = Insulin receptor (Homo sapiens, UniProt P06213); assay type: functional;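 note: insulin receptor kinase tested as one member of a kinome-wide kinase panel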
[21] = molecular target: Protein-tyrosine kinase 2-beta (Homo sapiens, UniProt Q14289); assay type: functional
Focal adhesion kinase 1 = Focal adhesion kinase 1 (Homo sapiens, UniProt Q05397); assay type: functional;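 note: measured as one member of a kinome panel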
[22] = molecular target: Inhibitor of nuclear factor kappa-B kinase subunit beta (Homo sapiens, UniProt O14920); assay type: functional
[23] = molecular target: Calcium/calmodulin-dependent protein kinase kinase 2 (Homo sapiens, UniProt Q96RR4); assay: Navigating the Kinome. Panel member name: CAMKK2; assay type: functional
[24] = Dose-response inhibition of insulin secretion in a rat insulinoma line at 5 mM glucose (AID 1117331); assay type: functional, cell-based; details: INS-1E

Ki [1]: > 2.51 nM (inactive)
Ki [2]: 794 nM (active)
pKi [2]: 6.1
Ki [3]: > 6310 nM (inactive)
Ki [4]: > 1580 nM (inactive)
Ki (Aurora kinase A): > 1580 nM (inactive)
Ki [5]: 1000 nM (active)
pKi [5]: 6
Ki (Activated CDC42 kinase 1): 1260 nM (active)
pKi (Activated CDC42 kinase 1): 5.9
Ki [6]: 794 nM (active)
pKi [6]: 6.1
Ki [7]: 2510 nM (active)
pKi [7]: 5.6
Ki [8]: 316 nM (active)
pKi [8]: 6.5
Ki (Ephrin type-A receptor 2): > 3160 nM (inactive)
Ki [9]: 794 nM (active)
pKi [9]: 6.1
Ki [10]: 0.631 nM (active)
pKi [10]: 9.2
Ki [11]: 7940 nM (active)
pKi [11]: 5.1
Ki [12]: > 1580 nM (inactive)
Ki [13]: 3.98 nM (active)
pKi [13]: 8.4
Ki [14]: 1580 nM (active)
pKi [14]: 5.8
Ki [15]: > 3980 nM (inactive)
Ki [16]: > 3160 nM (inactive)
Ki [17]: > 3980 nM (inactive)
SMILES: NC(=O)c1cc(-c2ccnc(N)n2)[nH]c1-c1ccc(Cl)cc1Cl

Ki [18]: 1260 nM (active)
Ki [4]: 1580 nM (active)
Ki [19]: 126 nM (active)
Ki (Aurora kinase A): > 1580 nM (inactive)
Ki [5]: 50.1 nM (active)
Ki [20]: 316 nM (active)
Ki (LIM domain kinase 1): 794 nM (active)
Ki (Insulin receptor): > 5010 nM (inactive)
Ki [21]: > 1580 nM (inactive)
Ki [6]: 398 nM (active)
Ki (Ephrin type-A receptor 2): > 3160 nM (inactive)
Ki (Focal adhesion kinase 1): > 1580 nM (inactive)
Ki [12]: 1 nM (active)
Ki [22]: 1260 nM (active)
SMILES: NC(COc1cncc(-c2ccc3c(c2)C(=Cc2ccco2)C(=O)N3)c1)Cc1c[nH]c2ccccc12 (configuration not stated)

SMILES: Cc1ccc(-n2nc(C(C)(C)C)cc2NC(=O)Nc2ccc(OCCN3CCOCC3)c3ccccc23)cc1 [DORAMAPIMOD]
Ki [23]: > 2510 nM (inactive)
IC50 [24]: > 33300 nM (inactive)

Source: ChEMBL document CHEMBL1201862, “PubChem BioAssay data set” (2004)
